From ChEMBL document CHEMBL1201862, “PubChem BioAssay data set” (2004)
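Growth conditions: 96-well plates. Treatment: test compound, 48 hours, 5 concentrations. Analysis: linear interpolation between bracketing concentrations; unreached endpoints set to highest concentration. Abbreviation: GI50, concentration required for 50% inhibition of growth.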 The source made the active and inactive calls. Cut-off read from the data, not from the text of the source: active = GI50 up to about 1.1 µM and inactive = higher.

Columns and labels:
Assay in all cases: NCI anticancer screen, dose series, 48 h
[1] = tested on: KM-20L2
[2] = tested on: LXFL 529
[3] = tested on: M19-MEL
[4] = tested on: HOP-18
[5] = tested on: DMS-273
[6] = tested on: XF498
[7] = tested on: SNB-78
[8] = tested on: RXF 631
[9] = tested on: DMS-114

Measured: GI50

O=C(O)CNS(=O)(=O)c1ccc(NC(=O)c2ccccc2[N+](=O)[O-])cc1
inactive: [1] > 100 µM | [2] > 100 µM | [3] > 100 µM | [4] > 100 µM | [5] > 100 µM | [6] > 100 µM

COC1=CC(=O)C(Br)=CC1=O
inactive: [7] > 10 µM | [1] 33.3 µM | [2] 17.2 µM | [3] 17.7 µM | [8] 31.6 µM | [5] > 10 µM | [6] 16.9 µM | [9] 20.5 µM

CCOC(=O)C[C@@]12CCCN[C@]1(C)CCc1ccccc12
inactive: [7] > 100 µM | [1] > 100 µM | [2] > 100 µM | [3] > 100 µM | [4] > 100 µM | [6] > 100 µM

Cc1nc2cc(Nc3ccccc3C(=O)O)ccc2s1
inactive: [1] > 100 µM | [2] > 100 µM | [3] > 100 µM | [4] 88.9 µM | [5] > 100 µM | [9] > 100 µM

O=S(=O)(c1ccccc1)N1N=C2c3ccccc3CCC[C@H]2C1c1ccccc1 (stereo not given in full)
inactive: [7] > 100 µM | [1] > 100 µM | [2] > 100 µM | [3] > 100 µM | [4] > 100 µM | [5] > 100 µM | [6] > 100 µM | [9] > 100 µM

CC(C)(C)C(=O)Nc1cccc2oc(-c3ccccc3)cc12
inactive: [7] 14.1 µM | [1] > 100 µM | [2] 36.3 µM | [3] > 100 µM | [8] 47 µM | [4] > 100 µM | [5] > 100 µM | [9] > 100 µM

COc1ccc(/C=C(\Cl)c2ccc(OC)c(OC)c2)cc1OC
inactive: [1] > 100 µM | [2] > 100 µM | [3] > 100 µM | [5] > 100 µM | [9] > 100 µM

CS(=O)(=O)c1ccc(-c2cc(-c3ccc(S(C)(=O)=O)cc3)[n+](-c3cc(-c4ccc(S(C)(=O)=O)cc4)c([O-])c(-c4ccc(S(C)(=O)=O)cc4)c3)c(-c3ccc(S(C)(=O)=O)cc3)c2)cc1
inactive: [7] > 100 µM | [1] > 100 µM | [2] > 100 µM | [3] > 100 µM | [8] > 100 µM | [4] > 100 µM | [5] > 100 µM | [9] > 100 µM

CSc1nc(NC2OCC(OC(C)=O)C(OC(C)=O)C2OC(C)=O)c(/N=C\C=N\c2c(NC3OCC(OC(C)=O)C(OC(C)=O)C3OC(C)=O)nc(SC)[nH]c2=O)c(=O)[nH]1 (stereo not given)
inactive: [7] > 94.6 µM | [1] > 100 µM | [2] > 83.6 µM | [3] > 100 µM | [8] 74 µM | [4] > 100 µM | [5] > 100 µM | [9] > 100 µM

O=C(O)CCC(NC(=O)c1ccc(Nc2nc3ccccc3nc2-c2cccs2)cc1)C(=O)O (stereo not given)
inactive: [7] > 100 µM | [1] > 100 µM | [2] > 100 µM | [3] > 100 µM | [8] > 100 µM | [4] > 100 µM | [5] > 100 µM | [6] > 100 µM | [9] > 100 µM

O=C(NCc1ccccc1)c1cc2cc(O)c(O)cc2cn1
inactive: [7] 50.5 µM | [1] 29.4 µM | [2] 16 µM | [3] 20.1 µM | [4] 13.8 µM | [5] 4.7 µM | [6] 28.4 µM | [9] 4.48 µM
